The source of these data is patent US20090264433A1, “Compounds, Compositions and Methods Comprising Triazine Derivatives” (Institute for OneWorld Health, priority 2008, published 2009).

A word on the IC50: it is the midpoint of a concentration-inhibition curve.

T1 sequence (P13569 whole entry): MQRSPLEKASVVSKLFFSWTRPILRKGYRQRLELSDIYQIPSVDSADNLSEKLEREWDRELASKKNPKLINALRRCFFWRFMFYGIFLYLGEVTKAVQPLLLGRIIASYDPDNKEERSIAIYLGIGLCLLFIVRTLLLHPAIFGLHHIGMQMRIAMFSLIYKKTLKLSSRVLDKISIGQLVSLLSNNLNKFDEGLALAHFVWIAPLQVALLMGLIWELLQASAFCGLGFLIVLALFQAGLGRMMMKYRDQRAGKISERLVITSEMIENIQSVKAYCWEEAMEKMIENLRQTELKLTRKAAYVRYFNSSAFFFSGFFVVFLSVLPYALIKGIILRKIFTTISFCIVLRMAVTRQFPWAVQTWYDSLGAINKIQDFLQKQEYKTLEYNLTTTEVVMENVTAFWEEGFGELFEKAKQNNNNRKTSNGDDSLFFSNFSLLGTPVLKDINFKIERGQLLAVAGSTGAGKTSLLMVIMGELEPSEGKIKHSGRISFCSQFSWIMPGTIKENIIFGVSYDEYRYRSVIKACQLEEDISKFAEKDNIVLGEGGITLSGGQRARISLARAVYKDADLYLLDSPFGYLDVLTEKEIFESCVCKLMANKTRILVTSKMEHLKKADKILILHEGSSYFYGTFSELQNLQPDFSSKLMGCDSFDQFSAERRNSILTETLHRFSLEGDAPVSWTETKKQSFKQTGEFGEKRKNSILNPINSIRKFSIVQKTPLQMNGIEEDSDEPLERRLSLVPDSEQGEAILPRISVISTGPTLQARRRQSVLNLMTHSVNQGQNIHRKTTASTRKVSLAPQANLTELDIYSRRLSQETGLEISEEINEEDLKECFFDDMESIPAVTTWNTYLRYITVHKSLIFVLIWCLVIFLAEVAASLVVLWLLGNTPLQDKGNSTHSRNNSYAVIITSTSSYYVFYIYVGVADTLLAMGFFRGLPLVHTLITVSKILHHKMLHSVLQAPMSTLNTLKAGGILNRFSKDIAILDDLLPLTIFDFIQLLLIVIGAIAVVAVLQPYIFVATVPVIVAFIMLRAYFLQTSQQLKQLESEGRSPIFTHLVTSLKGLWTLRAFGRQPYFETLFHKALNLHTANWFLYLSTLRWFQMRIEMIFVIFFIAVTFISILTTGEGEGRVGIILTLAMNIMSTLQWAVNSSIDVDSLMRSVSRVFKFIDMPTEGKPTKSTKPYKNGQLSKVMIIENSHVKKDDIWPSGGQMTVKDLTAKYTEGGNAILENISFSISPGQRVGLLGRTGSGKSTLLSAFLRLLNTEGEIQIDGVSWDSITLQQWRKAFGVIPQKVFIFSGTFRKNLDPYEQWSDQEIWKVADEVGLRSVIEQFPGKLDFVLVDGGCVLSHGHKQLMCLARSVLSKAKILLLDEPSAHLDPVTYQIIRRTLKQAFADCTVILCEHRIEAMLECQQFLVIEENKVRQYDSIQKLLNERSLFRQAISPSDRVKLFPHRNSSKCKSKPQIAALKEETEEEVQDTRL

This test addresses T1, CFTR channel in human colonic T84 cells (Homo sapiens, UniProt P13569).
T1 construct: results in the phosphorylation and opening of CFTR anion channels; host or cells: human colonic T84 cells
The test is described as follows: T84 assay (FLIPR membrane potential dye, forskolin/IBMX-stimulated CFTR). Format: cell-based. Conditions: average of at least 2 runs unless annotated n = 1. As for the experimental part:
(§1) For example, Human colonic T84 cells can be acquired from the European Collection of Cell Cultures (ECACC) and grown in standard culture conditions as described by the supplier. On the day before assay 25,000 T84 cells per well are plated into standard black walled, clear bottom 384-well assay plates in standard growth medium consisting of DMEM:F12 with 10% FBS and incubated overnight. On the day of the assay the plates are washed using a standard assay buffer (HBSS with 10 mM Hepes) and incubated for 15 minutes in serum free cell culture medium before the addition of a commercially available membrane potential sensitive fluorescent dye (FLIPR Red membrane potential dye, Molecular Devices Corporation). T84 cells are incubated with the FLIPR Red membrane potential dye for 45 minutes in the presence and absence of test compound before being transferred to a commercially available fluorescence imaging plate reader (FLIPR384, Molecular Devices Corporation). Fluorescence levels are monitored continuously every second for 150 seconds; after an initial 10 second baseline, CFTR channel activity is stimulated through the addition of 10 μM forskolin in the presence of 100 μM of the phosphodiesterase inhibitor iso-butyl-methylxanthine (IBMX). Addition of the forskolin leads to the activation of intracellular adenylyl cylase 1, elevating cAMP levels and results in the phosphorylation and opening of CFTR anion channels. CFTR channel opening causes chloride ion efflux and subsequent depolarization of the cells, which is measured by an increase in fluorescence. CFTR inhibitor compounds prevent cell depolarization and the associated increase in fluorescence.
as §1, with “Human colonic” for “For example, Human colonic”, “T84 cells are acquired from” for “T84 cells can be acquired from”, “(ECACC) and are grown in” for “(ECACC) and grown in”
In the case of `Cc1ccc(Cl)c(OCc2ncc(-c3cc(Br)c(O)c(Br)c3)nn2)c1` [Compound 34, 2,6-dibromo-4-(3-((2-chloro-5-methylphenoxy)methyl)-1,2,4-triazin-6-yl)phenol], the IC50 was found to be 11.6 µM.

Take `CC(C)(c1ccccc1)c1ccc(OCc2ncc(-c3cc(Br)c(O)c(Br)c3)nn2)cc1` [Compound 35, 2,6-dibromo-4-(3-((4-(2-phenylpropan-2-yl)phenoxy)methyl)-1,2,4-triazin-6-yl)phenol]: the midpoint of inhibition, the IC50, lay at 7.31 µM.

On to `Oc1c(Cl)cc(-c2cnc(C(O)(c3ccccc3)c3ccccc3)nn2)cc1Cl` [Compound 36, 2,6-dichloro-4-(3-(hydroxydiphenylmethyl)-1,2,4-triazin-6-yl)phenol], for which half-maximal inhibition (IC50) was put at 7.67 µM.

`Oc1c(Cl)cc(-c2cnc(COc3cccc(Cl)c3Cl)nn2)cc1Cl` [Compound 37, 2,6-dichloro-4-(3-((2,3-dichlorophenoxy)methyl)-1,2,4-triazin-6-yl)phenol] showed an IC50 of 8.61 µM.

On to `Cc1cc(Cl)ccc1OCc1ncc(-c2cc(Br)c(O)c(Br)c2)nn1` [Compound 39, 2,6-dibromo-4-(3-((4-chloro-2-methylphenoxy)methyl)-1,2,4-triazin-6-yl)phenol], for which the IC50 amounted to 10.9 µM.

Consider `Cc1cc(Cl)ccc1OCc1ncc(-c2cc(Cl)c(O)c(Cl)c2)nn1` [Compound 40, 2,6-dichloro-4-(3-((4-chloro-2-methylphenoxy)methyl)-1,2,4-triazin-6-yl)phenol], for which the IC50 came out at 10.5 µM.

`Cc1ccc(OCc2ncc(-c3cc(Cl)c(O)c(Cl)c3)nn2)c2c1CCC2` [Compound 41, 2,6-dichloro-4-(3-((7-methyl-2,3-dihydro-1H-inden-4-yloxy)methyl)-1,2,4-triazin-6-yl)phenol]: the IC50 was 10.6 µM.

`Oc1c(Br)cc(-c2cnc(COc3ccc(Cl)cc3Cl)nn2)cc1Br` [Compound 42, 2,6-dibromo-4-(3-((2,4-dichlorophenoxy)methyl)-1,2,4-triazin-6-yl)phenol] gave an IC50 of 11 µM.

`Oc1c(Br)cc(-c2cnc(COc3cc(Cl)ccc3Cl)nn2)cc1Br` [Compound 43, 2,6-dibromo-4-(3-((2,5-dichlorophenoxy)methyl)-1,2,4-triazin-6-yl)phenol]: the midpoint of inhibition, the IC50, lay at 11.1 µM.

In the case of `C=CCc1ccccc1OCc1ncc(-c2cc(Br)c(O)c(Br)c2)nn1` [Compound 44, 4-(3-((2-allylphenoxy)methyl)-1,2,4-triazin-6-yl)-2,6-dibromophenol], the 50% inhibitory concentration (IC50) is 12.7 µM.

As for `Cc1ccc(OCc2ncc(-c3cc(Br)c(O)c(Br)c3)nn2)c2c1CCC2` [Compound 45, 2,6-dibromo-4-(3-((7-methyl-2,3-dihydro-1H-inden-4-yloxy)methyl)-1,2,4-triazin-6-yl)phenol], 14.1 µM corresponded to half-maximal inhibition (IC50).

As to `Cc1cc(Br)c(OCc2ncc(-c3cc(Br)c(O)c(Br)c3)nn2)c2c1CCC2` [Compound 46, 2,6-dibromo-4-(3-((5-bromo-7-methyl-2,3-dihydro-1H-inden-4-yloxy)methyl)-1,2,4-triazin-6-yl)phenol], the concentration for half-maximal inhibition (IC50) is 14.3 µM.

In turn, `Cc1cc(OCc2ncc(-c3cc(Br)c(O)c(Br)c3)nn2)cc(C)c1Cl` [Compound 47, 2,6-dibromo-4-(3-((4-chloro-3,5-dimethylphenoxy)methyl)-1,2,4-triazin-6-yl)phenol] returned a 50% inhibitory concentration (IC50) of 14.7 µM.

Consider `Oc1c(Br)cc(-c2cnc(COc3ccc4c(c3)CCC4)nn2)cc1Br` [Compound 48, 2,6-dibromo-4-(3-((2,3-dihydro-1H-inden-5-yloxy)methyl)-1,2,4-triazin-6-yl)phenol], for which 14.8 µM corresponded to half-maximal inhibition (IC50).

`Oc1c(Br)cc(-c2cnc(COc3ccc(Br)cc3)nn2)cc1Br` [Compound 49, 2,6-dibromo-4-(3-((4-bromophenoxy)methyl)-1,2,4-triazin-6-yl)phenol] came in with a half-inhibitory concentration (IC50) of 15.3 µM.

Molecule `CC1(C)Cc2cccc(OCc3ncc(-c4cc(Cl)c(O)c(Cl)c4)nn3)c2O1` [Compound 50, 2,6-dichloro-4-(3-((2,2-dimethyl-2,3-dihydrobenzofuran-7-yloxy)methyl)-1,2,4-triazin-6-yl)phenol] came in with a 50% inhibitory concentration (IC50) of 15.4 µM.

For the molecule `Oc1c(Br)cc(-c2cnc(COc3ccc(C4SCCS4)cc3)nn2)cc1Br` [Compound 51, 4-(3-((4-(1,3-dithiolan-2-yl)phenoxy)methyl)-1,2,4-triazin-6-yl)-2,6-dibromophenol], 18.8 µM corresponded to half-maximal inhibition (IC50).

Molecule `Cc1ccc(C)c(OCc2ncc(-c3cc(Br)c(O)c(Br)c3)nn2)c1` [Compound 52, 2,6-dibromo-4-(3-((2,5-dimethylphenoxy)methyl)-1,2,4-triazin-6-yl)phenol] came in with an IC50 of 19.8 µM.

Molecule `Cc1ccc(C(C)C)cc1OCc1ncc(-c2cc(Br)c(O)c(Br)c2)nn1` [Compound 53, 2,6-dibromo-4-(3-((5-isopropyl-2-methylphenoxy)methyl)-1,2,4-triazin-6-yl)phenol] registered an IC50 of 20.1 µM.

Turning to `Cc1cc(OCc2ncc(-c3cc(Br)c(O)c(Br)c3)nn2)cc(C)c1Br` [Compound 54, 2,6-dibromo-4-(3-((4-bromo-3,5-dimethylphenoxy)methyl)-1,2,4-triazin-6-yl)phenol], the 50% inhibitory concentration (IC50) was 22 µM.

In turn, `Oc1c(Br)cc(-c2cnc(COc3ccc(-c4ccccc4)cc3)nn2)cc1Br` [Compound 55, 4-(3-((biphenyl-4-yloxy)methyl)-1,2,4-triazin-6-yl)-2,6-dibromophenol] registered a concentration for half-maximal inhibition (IC50) of 22.9 µM.

On to `Oc1c(Br)cc(-c2cnc(COc3ccc(F)cc3F)nn2)cc1Br` [Compound 56, 2,6-dibromo-4-(3-((2,4-difluorophenoxy)methyl)-1,2,4-triazin-6-yl)phenol], for which inhibition was half-maximal at 25.3 µM (IC50).

As for `Cc1ccc(C(C)C)c(OCc2ncc(-c3cc(Br)c(O)c(Br)c3)nn2)c1` [Compound 57, 2,6-dibromo-4-(3-((2-isopropyl-5-methylphenoxy)methyl)-1,2,4-triazin-6-yl)phenol], half-maximal inhibition (IC50) was put at 26.8 µM.

For the molecule `Oc1c(Br)cc(-c2cnc(OCCc3ccc(Cl)cc3)nn2)cc1Br` [Compound 90, 2,6-dibromo-4-(3-(4-chlorophenethoxy)-1,2,4-triazin-6-yl)phenol], the half-maximal inhibitory concentration (IC50) was determined as 0.17 µM.

Consider `Oc1c(Br)cc(-c2cnc(OC3c4ccccc4Oc4ccccc43)nn2)cc1Br` [Compound 91, 4-(3-(9H-xanthen-9-yloxy)-1,2,4-triazin-6-yl)-2,6-dibromophenol], for which the midpoint of inhibition, the IC50, lay at 4.09 µM.

Consider `CC(C)(C)OC(=O)N1CCN(Cc2cc(Cl)ccc2OCc2ncc(-c3cc(Br)c(O)c(Br)c3)nn2)CC1` [Compound 92, tert-butyl 4-(5-chloro-2-((6-(3,5-dibromo-4-hydroxyphenyl)-1,2,4-triazin-3-yl)methoxy)benzyl)piperazine-1-carboxylate], for which the half-inhibitory concentration (IC50) was 4.56 µM.

The molecule `CC(C)(C)c1ccc(CCOc2ncc(-c3cc(Br)c(O)c(Br)c3)nn2)cc1` [Compound 93, 2,6-dibromo-4-(3-(4-tert-butylphenethoxy)-1,2,4-triazin-6-yl)phenol] showed an IC50 of 0.64 µM.

Molecule `Oc1c(Br)cc(-c2cnc(OCCc3ccccc3Cl)nn2)cc1Br` [Compound 94, 2,6-dibromo-4-(3-(2-chlorophenethoxy)-1,2,4-triazin-6-yl)phenol] had an IC50 of 0.34 µM.

`Oc1c(Br)cc(-c2cnc(OCCCc3ccc(Cl)cc3)nn2)cc1Br` [Compound 95, 2,6-dibromo-4-(3-(3-(4-chlorophenyl)propoxy)-1,2,4-triazin-6-yl)phenol] gave an IC50 of 0.61 µM.

`Oc1c(Br)cc(-c2cnc(OCCc3ccccc3)nn2)cc1Br` [Compound 96, 2,6-dibromo-4-(3-phenethoxy-1,2,4-triazin-6-yl)phenol] gave an IC50 of 0.47 µM.

As for `COc1ccc(CCOc2ncc(-c3cc(Br)c(O)c(Br)c3)nn2)cc1` [Compound 97, 2,6-dibromo-4-(3-(4-methoxyphenethoxy)-1,2,4-triazin-6-yl)phenol], the concentration for half-maximal inhibition (IC50) is 0.45 µM.

`Cc1ccc(CCOc2ncc(-c3cc(Br)c(O)c(Br)c3)nn2)cc1` [Compound 98, 2,6-dibromo-4-(3-(4-methylphenethoxy)-1,2,4-triazin-6-yl)phenol] showed an IC50 of 0.3 µM.

`Oc1c(Br)cc(-c2cnc(OCCc3ccc(Cl)c(Cl)c3)nn2)cc1Br` [Compound 99, 2,6-dibromo-4-(3-(3,4-dichlorophenethoxy)-1,2,4-triazin-6-yl)phenol] registered a concentration for half-maximal inhibition (IC50) of 0.26 µM.
